Source: patent publication US20030077826A1, “Chimeric molecules containing a module able to target specific cells and a module regulating the apoptogenic function of the permeability transition pore complex (PTPC)” (priority 2001, published 2003)
Ends that are not written are not given here. Peptide text beside a SMILES is read from it. * marks the point of attachment. Biotin = O=C1N[C@H]2[C@H](CS[C@H]2CCCCC(=O)*)N1

Columns and labels:
[1] = test system: permeability transition pore (PTP); experiment: Swelling of isolated mitochondria (large amplitude swelling, 90° light scattering); assay type: biochemical, rat; design: key to Induction of Mitochondrial swelling (sw): +++ rapid sw; ++ low sw; + very low sw; − no sw t 20 min; settings: for Induction of Mitochondrial swelling (sw): 5 μM, 20 min, isolated mitochondria
Description: Mitochondria are purified from rat liver, as described (Costantini et al., 1996), and resuspended in 250 mM sucrose+0.1 mM EGTA+10 mM-tris[hydroxymethyl]methyl-2-Aminoethanesulfonic acid, pH=7.4). For the induction of PT, mitochondria (0.5 mg protein per ml) are resuspended in PT buffer (200 mM sucrose, 10 mM Tris-MOPS (pH 7.4), 5 mM Tris-succinate, 1 mM Tris-phosphate, 2 μM rotenone, and 10 μM EGTA-Tris), and monitored in an F4500 fluorescence spectrometer (Hitachi, Tokyo, Japan) for the 90° light scattering of light ([…]), 1 μM cyclosporin A (CsA; Novartis, Basel, Switzerland), 5 μM CaCl2, and/or 0.5 to 20 μM of pTarg-pTox or pTarg-pSave. For the determination of the ΔΨm, mitochondria (0.5 mg protein per ml) are incubated in a buffer supplemented with 1 μM rhodamine 123 (Molecular Probes, Eugene, Oreg.) and the dequenching of rhodamine fluorescence (excitation 505 nm, emission 525 nm) is measured as described (Shimizu et al, 1998). Supernatants from mitochondria (6800 g for 15 min; then 20 000 g for 1 h; 4° C.) are frozen at −80° C. until determination of apoptogenic activity on isolated nuclei, DEVD-afc cleaving activity, and immunodetection of cytochrome c and AIF. Cytochrome c and AIF are detected by means of a monoclonal antibody (clone 7H8.2C12, Pharmingen) and a polyclonal rabbit anti-serum (Susin et al. 1999) respectively.

Purified VDAC = experiment: Surface plasmon resonance, immobilised peptides with purified VDAC; assay type: binding; settings: for specific binding of VDAC: 50 nM VDAC
Description: (§1) Sensor Chips SA (streptavidin coated sensor chips) were used for immobilisation of the different peptides. Tox1 was immobilised at a density of 0.7 ng/mm^2, Tox0 at a density of 3.7 ng/mm^2,. Ctr1Tox0 at a density of 1.4 ng/mm^2, Tox5 at a density of 1 ng/mm^2, Tox6 at a density of 1 ng/mm2, Save1 at a density of 1.3 ng/mm^2, and the control peptide at a density of 0.8 ng/mm^2. Association and dissociation kinetics of ANT and VDAC interactions were followed at a rate of 10 μL/min for 10 minutes (5 minutes association and 5 minutes dissociation). The ligand was regenerated with a 1 minute flux of KSCN 3M. The obtained sensorgrams were analysed by the BlAeval 3.1 software using the method of double references (Myszka D. G. 2000. Kinetic, equilibrium and thermodynamic analysis of macromolecular interactions with BIACORE. Methods Enzymol. 323:325-340). From the sensorgrams with the ligands were first substracted the sensorgrams obtained with the corresponding analyte solvents. A second substraction was performed with the sensorgrams obtained with the control peptide ligand. The control peptide for the Tox and Save peptides was biot-H19C corresponding to the sequence of the β2-adrenergic receptor (Lebesgue D., Wallukat G., Mijares A., Granier C., Argibay J., and Hoebeke J. (1998) An agonist-like monoclonal antibody to the human β 2-adrenergic receptor. Eur.J. Pharmacol. 348:123-133). The control peptide for Tox0 was Ctr1Tox0.

Purified ANT = target: T1, Purified ANT (Rattus norvegicus, UniProt Q05962); experiment: biochemical; assay type: binding
T1 sequence (Q05962 1-298): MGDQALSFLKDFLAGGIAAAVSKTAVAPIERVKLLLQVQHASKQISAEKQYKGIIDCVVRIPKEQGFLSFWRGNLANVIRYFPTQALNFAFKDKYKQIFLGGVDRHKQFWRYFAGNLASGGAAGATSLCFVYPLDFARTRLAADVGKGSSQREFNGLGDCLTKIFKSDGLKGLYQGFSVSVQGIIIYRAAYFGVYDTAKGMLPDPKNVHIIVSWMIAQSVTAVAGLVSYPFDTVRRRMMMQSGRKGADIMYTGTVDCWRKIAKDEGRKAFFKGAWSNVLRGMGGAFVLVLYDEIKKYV
Description: as §1

[2] = target: T2, adenine nucleotide translocator (ANT), purified from rat heart mitochondria (rat), Q05962; experiment: SPR (BIAcore), peptide on streptavidin chip, ANT as analyte at one concentration (50 nM)
T2 chain: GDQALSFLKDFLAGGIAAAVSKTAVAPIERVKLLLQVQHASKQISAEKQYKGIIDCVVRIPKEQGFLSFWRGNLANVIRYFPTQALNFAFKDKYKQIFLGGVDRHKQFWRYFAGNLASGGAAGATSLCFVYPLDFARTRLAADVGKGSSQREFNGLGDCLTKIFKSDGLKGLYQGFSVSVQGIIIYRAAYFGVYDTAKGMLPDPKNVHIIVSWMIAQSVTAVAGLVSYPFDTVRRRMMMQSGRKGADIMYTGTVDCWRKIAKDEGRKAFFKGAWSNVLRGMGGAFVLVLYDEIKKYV

[3] = target: T2, adenine nucleotide translocator (ANT), …

Molecule: C=C1[C@@H]2CC[C@H]3[C@]4(C)C[C@H](O[C@@H]5O[C@H](CO)[C@@H](OS(=O)(=O)O)[C@H](OS(=O)(=O)O)[C@H]5OC(=O)CC(C)C)C[C@@H](C(=O)O)[C@H]4CC[C@]3(C2)[C@H]1O [Atractyloside, atractyloside, reference compound]
- Mitrochondrial swelling (sw) % ([1]; 600 μM alone): 110%

Molecule: [Ca+2] [Ca 2 +, reference compound]
- Mitrochondrial swelling (sw) % ([1]; 100 μM alone): 100%

Molecule: C[C@H](NC(=O)[C@H](Cc1ccccc1)NC(=O)[C@H](Cc1ccc(O)cc1)NC(=O)[C@H](CCCNC(=N)N)NC(=O)[C@H](Cc1c[nH]c2ccccc12)NC(=O)[C@H](Cc1ccccc1)NC(=O)[C@H](CCC(N)=O)NC(=O)[C@@H](NC(=O)[C@H](CCCNC(=N)N)NC(=O)[C@H](CCCCN)NC(=O)[C@H](CC(=O)O)NC(=O)[C@H](CCCNC(=N)N)NC(=O)[C@H](CCCNC(=N)N)NC(=O)[C@H](CCCNC(=N)N)NC(=O)[C@H](CCC(N)=O)NC(=O)[C@H](CCCNC(=N)N)NC(=O)[C@H](CCCNC(=N)N)NC(=O)[C@H](CCCCN)NC(=O)[C@H](CCCCN)NC(=O)[C@H](CCCNC(=N)N)NC(=O)CCCC[C@@H]1SC[C@@H]2NC(=O)N[C@@H]21)[C@@H](C)O)C(=O)NCC(=O)N[C@@H](CC(N)=O)C(=O)O [Save1, Biot-RKKRRQRRR-DKRTQFWRYFAGN (hANT2)] (Biotin-RKKRRQRRRDKRTQFWRYFAGN-OH; C-terminus assumed)
- Mitrochondrial swelling (sw) % ([1]; 5 μM + Atr 600 μM): 5%
- Mitrochondrial swelling (sw) % ([1]; 5 μM alone): 2%
- Mitrochondrial swelling (sw) % ([1]; 20 μM + Atr 600 μM): 12%
- Mitrochondrial swelling (sw) % ([1]; 20 μM alone): 12%
- specific binding of VDAC (Purified VDAC): did not result in any specific binding
- Kd (Purified ANT): 0.01 nM

Molecule: CC[C@H](C)[C@H](NC(=O)CNC(=O)[C@@H](NC(=O)[C@H](CCCNC(=N)N)NC(=O)[C@H](CO)NC(=O)[C@H](Cc1c[nH]cn1)NC(=O)[C@H](CCCNC(=N)N)NC(=O)[C@H](CS)NC(=O)CNC(=O)[C@@H](NC(=O)[C@H](CCCNC(=N)N)NC(=O)[C@H](Cc1ccccc1)NC(=O)[C@H](Cc1c[nH]cn1)NC(=O)[C@@H](NC(=O)[C@H](Cc1ccccc1)NC(=O)[C@H](CC(C)C)NC(=O)[C@H](CC(C)C)NC(=O)[C@H](CCC(N)=O)NC(=O)[C@H](CCC(N)=O)NC(=O)[C@H](CC(C)C)NC(=O)[C@@H](NC(=O)[C@H](CCCNC(=N)N)NC(=O)[C@@H](NC(=O)[C@H](CC(C)C)NC(=O)[C@H](C)NC(=O)[C@H](CCC(=O)O)NC(=O)[C@@H](NC(=O)CNC(=O)[C@@H](NC(=O)[C@H](Cc1c[nH]c2ccccc12)NC(=O)[C@@H](NC(=O)[C@H](CC(=O)O)NC(=O)CCCC[C@@H]1SC[C@@H]2NC(=O)N[C@@H]21)[C@@H](C)O)[C@@H](C)O)C(C)C)[C@@H](C)CC)[C@@H](C)CC)[C@@H](C)CC)[C@@H](C)CC)[C@@H](C)CC)C(=O)N[C@H](C(=O)N[C@@H](CCC(N)=O)C(=O)N[C@@H](CCC(N)=O)C(=O)N[C@@H](CCCNC(=N)N)C(=O)N[C@@H](CCCNC(=N)N)C(=O)N[C@H](C(=O)N[C@@H](CCCNC(=N)N)C(=O)N[C@@H](CC(N)=O)C(=O)NCC(=O)N[C@@H](C)C(=O)N[C@@H](CO)C(=O)N[C@@H](CCCCN)C(=O)N[C@@H](CO)C(=O)O)[C@@H](C)O)[C@@H](C)CC [Tox0]
- Kd (Purified ANT): 0.15 nM

Molecule: C[C@@H](O)[C@H](NC(=O)[C@H](CCCNC(=N)N)NC(=O)[C@H](CCCCN)NC(=O)[C@H](CC(=O)O)NC(=O)CNC(=O)CNC(=O)[C@H](CS)NC(=O)[C@H](CCCNC(=N)N)NC(=O)CNC(=O)[C@H](CC(N)=O)NC(=O)[C@H](CS)NC(=O)CCCC[C@@H]1SC[C@@H]2NC(=O)N[C@@H]21)C(=O)N[C@@H](CCC(N)=O)C(=O)N[C@@H](Cc1ccccc1)C(=O)N[C@@H](Cc1c[nH]c2ccccc12)C(=O)N[C@@H](CCCNC(=N)N)C(=O)N[C@@H](Cc1ccc(O)cc1)C(=O)N[C@@H](Cc1ccccc1)C(=O)N1CCC[C@H]1C(=O)NCC(=O)N[C@@H](CC(N)=O)C(=O)O [Tox5, Biot-CNGRC-GG-DKRTQFWRYFPGN (hANT2m)] (Biotin-CNGRCGGDKRTQFWRYFPGN-OH; N-terminus and C-terminus assumed)
- Induction of Mitochondrial swelling (sw) [1]: ++
- specific binding of VDAC (Purified VDAC): did not result in any specific binding

Molecule: C[C@H](NC(=O)CCCC[C@@H]1SC[C@@H]2NC(=O)N[C@@H]21)C(=O)N[C@@H](CS)C(=O)N[C@@H](CC(=O)O)C(=O)N[C@@H](CS)C(=O)N[C@@H](CCCNC(=N)N)C(=O)NCC(=O)N[C@@H](CC(=O)O)C(=O)N[C@@H](CS)C(=O)N[C@@H](Cc1ccccc1)C(=O)N[C@@H](CS)C(=O)NCC(=O)NCC(=O)N[C@@H](CC(=O)O)C(=O)N[C@@H](CCCCN)C(=O)N[C@@H](CCCNC(=N)N)C(=O)N[C@H](C(=O)N[C@@H](CCC(N)=O)C(=O)N[C@@H](Cc1ccccc1)C(=O)N[C@@H](Cc1c[nH]c2ccccc12)C(=O)N[C@@H](CCCNC(=N)N)C(=O)N[C@@H](Cc1ccc(O)cc1)C(=O)N[C@@H](Cc1ccccc1)C(=O)N1CCC[C@H]1C(=O)NCC(=O)N[C@@H](CC(N)=O)C(=O)O)[C@@H](C)O [Tox6, Biot-ACDCRGDCFC-GG-DKRTQFWRYFPGN (hANT2m)] (Biotin-ACDCRGDCFCGGDKRTQFWRYFPGN-OH; N-terminus and C-terminus assumed)
- Induction of Mitochondrial swelling (sw) [1]: ++
- specific binding of VDAC (Purified VDAC): did not result in any specific binding

Molecule: Biot- CNGRC-GG-HFAIGCRHSAIG [Ctr1 Tox1]
- Induction of Mitochondrial swelling (sw) [1]: −

Molecule: Biot- CNGRC-GG-HFRIGCRHSRIG [Tox1]
- Induction of Mitochondrial swelling (sw) [1]: ++
- association of VDAC with the peptide ligand (Purified VDAC; VDAC concentrations ten times higher than ANT): only extremely low association
- binding to purified ANT (in words) (Purified ANT; surface plasmon resonance): Binds

Molecule: Biot-CNGRC-GG-CNGRC [Ctr2 Tox1]
- Induction of Mitochondrial swelling (sw) [1]: −

Molecule: Biot-GG-HFRIGCRHSRIG [Ctr3 Tox1]
- Induction of Mitochondrial swelling (sw) [1]: +

Molecule: Biot-RKKRRQRRR-LASGGAAGATSLCFVYPL (hANT[117-134]) [Save2]
- Mitrochondrial swelling (sw) % ([1]; 10 μM + Atr 600 μM): 16%
- Mitrochondrial swelling (sw) % ([1]; 10 μM alone): 2%
- Mitrochondrial swelling (sw) % ([1]; 20 μM + Atr 600 μM): 16%
- Mitrochondrial swelling (sw) % ([1]; 20 μM alone): 16%

Molecule: CNGRCGGDKRTQFWRYFPGN (modifications not checked) [Tox5 (Biot-CNGRC-GG-… (hANT2m))]
- relative affinity [2]: 0.1 nM

Molecule: DTWTGVEALIRILQQLLFIHFRIGCRHSRIGIIQQRRTRNGASKS (not fully specified (N-terminus)) [Tox0 (Biotin-Vpr52-96)]
- Kd [3]: 0.15 nM

Molecule: ACDCRGDCFCGGDKRTQFWRYFPGN (modifications not checked) [Tox6 (Biot-…-GG-… (hANT2m))]
- relative affinity [2]: 0.7 nM
